10 compounds from patent US11427591B2, “Kinase inhibitors” (priority 2018, dated 2022) can be followed below.

For series [1], the system named is Human hepatic stellate cell LX-2. Kind of series: LX-2 Fibrosis Assay (inhibition of collagen production, TGF-b stimulated). The series is classed as cell-based. How it is done:
Human hepatic stellate cell LX-2 were grown in DMEM (Invitrogen, 11960) supplied with 1% MEM Non-Essential Amino Acids (Invitrogen, 11140-050), 2% fetal bovine serum (Hyclone, SV30087.03), Penicillin (100 U/mL)-streptomycin (100 μg/mL) (Millipore, TMS-AB2-C) and 2 mM L-Glutamine (Invitrogen, 25030-001). After the cells grew in 12-well plates for 24 hours, the cell culture medium was changed to the same as above except using 0.4% fetal bovine serum. After 20 hour growth in the reduced serum medium, the cells were treated with indicated doses of compounds for 30 minutes. Subsequently, the cells were stimulated with 4 ng/mL TGF-b (R&D Systems, 240-B-002) for 48 hours. The cells were rinsed twice with DPBS before being harvested with 100 μL RIPA buffer (Sigma, R0278) supplemented with protease inhibitor cocktail (Roche, 04693132001) at 4° C. The total protein in each sample was quantified using BCA Protein Assay Kit (Pierce™, 23227) and equal amount of total protein of each sample was subject to Western blot analysis. Antibodies used were mouse anti-α-Actin (SPM332) (sc-365970), mouse anti-CTGF (E5) (sc-365970), and mouse anti-collagen α1 (3G3) (sc-293182), from Santa Cruz Biotechnologies; and mouse anti-GAPDH (6C5) (EMD Millipore, MAB374). […] As such, these compounds be used as inhibitors of fibrosis by inhibiting function of the discoidin domain receptor family.

For series [2], the system named is LX-2 cells. Kind of series: Cytotoxicity, CellTiter-Glo Luminescent Cell Viability Assay. How it is done: (§1) LX-2 cells were seeded into 96 well plates in the presence of compounds and allowed to grow for 72 hours before CellTiter-Glo® Luminescent Cell Viability Assay was carried out according the manufacturer's instruction.
(ATP-based viability assays read luminescence as a measure of living cells.)

Series [3] relates to primary tumor cells freshly isolated from PC-07-0024 patient derived xenograft (PDX) tumor model. Put plainly: Pancreatic cancer tumor chemosensitivity assay (TCA), anti-proliferation, PC-07-0024. The series is classed as cell-based. Conditions: for IC50: Homo sapiens. The procedure:
(§2) Compound 1 is compared to Gemcitabine, which is a chemotherapy drug used in various types of cancers (e.g., breast cancer, ovarian cancer, non-small cell lung cancer, pancreatic cancer, and bladder cancer). The compounds, at 30 μM, 3 fold serial dilution, are tested in primary tumor cells freshly isolated from PC-07-0024 and LU-01-0523 patient derived xenograft (PDX) tumor model using tumor chemosensitivity assay (TCA).
(§3) The study was performed as follows. Add 195 μL of assay medium into each well of the V-bottom plate; then transfer 5 μL of the stock compound solution of each concentration from the stock plate (400× stock). Add 5 μL of DMSO into the Blank and Control wells. Pipette up and down to mix well. This V-plate is designated as the 10× concentrate compound plate.
(§4) For cell viability test, add compounds as below. Then incubate the plates at 37° C., 5% CO2, 95% air and 100% relative humidity for 3 days or 6 days. For day 0 plate, add 15 μL of the DMSO-medium into the Control wells. The final DMSO concentration was 0.25%. Proceed to cell viability assay. For TCA plates, add 15 μL of the compound-medium from the 10× concentrate compound plate into the cells in 96-well assay plate according to the plate map. Add 15 μL of the DMSO-medium into the Blank and Control wells. The final DMSO concentration was 0.25%. The assay is performed similar to the protocol of the bile duct cancer study provided above.

Series [4] deals with primary tumor cells freshly isolated from patient derived xenograft tumor model. Put plainly: Cholangiocarcinoma (bile duct cancer) tumor chemosensitivity assay (TCA), anti-proliferation. Particulars: for Max (%) / Min (%): inhibition rate. The series is classed as cell-based. How it is done: Cholangiocarcinoma (Bile Duct Cancer)
All the compounds were tested starting from 30 μM, 3-fold serial dilution.
Add 195 μL of assay medium into each well of the V-bottom plate; then transfer 5 μL of the stock compound solution of each concentration from the stock plate (400× stock). Add 5 μL of DMSO into the Blank and Control wells. Pipette up and down to mix well. This V-plate is designated as the 10× concentrate compound plate.
For cell viability test, add compounds as below. Then incubate the plates at 37° C., 5% CO2, 95% air and 100% relative humidity for 3 days or 6 days. For day 0 plate, add 15 μL of the DMSO-medium into the Control wells. The final DMSO concentration was 0.25%. Proceed to cell viability assay. For TCA plates, add 15 μL of the compound-medium from the 10× concentrate compound plate into the cells in 96-well assay plate according to the plate map. Add 15 μL of the DMSO-medium into the Blank and Control wells. The final DMSO concentration was 0.25%.
The procedures were performed according to the Promega CellTiter-Glo Luminescent Cell Viability Assay Kit (Promega-G7573): Thaw the CellTiter-Glo buffer and equilibrate to room temperature prior to use; Equilibrate the lyophilized CellTiter-Glo Substrate to room temperature prior to use; Transfer the entire liquid volume of CellTiter-Glo Buffer into the amber bottle containing CellTiter-Glo Substrate to reconstitute the lyophilized enzyme/substrate mixture. This forms the CellTiter-Glo Reagent; Mix by gently vortexing to obtain a homogeneous solution; Equilibrate the plate and its contents to room temperature for approximately 30 minutes; Add 75 μL (equal to the half volume of culture medium present in each well) CellTiter-Glo Reagent in each well. Cover plates with aluminum foil to protect from light; Mix contents for 2 minutes on an orbital shaker to induce cell lysis; Allow the plate to incubate at room temperature for 10 minutes to stabilize luminescent signal; and Transfer the mixture of cell and CTG buffer to the detection 96 well plate and record luminescence on the 2104 EnVision plate reader. An ATP standard curve at the same time points is prepared.
Inhibition rate (IR) of the tested compounds was determined by the following formula: IR (%)=(1−(RLU compound−RLU blank)/(RLU control−RLU blank))*100%. The inhibitions of different dose of compound were calculated in Excel file, and then were used to plot inhibition curve and evaluate related parameters, such as Min, Max and IC50. The data were interpreted by GraphPad Prism software. […]

Series [5] has as its system primary tumor cells freshly isolated from LU-01-0523 patient derived xenograft (PDX) tumor model. Put plainly: Tumor chemosensitivity assay (TCA), anti-proliferation, LU-01-0523. Particulars: for IC50: Homo sapiens. It counts as cell-based. How it is done: as §2, §3, §4
Series [6] in a line: Cytotoxicity, CellTiter-Glo Luminescent Cell Viability Assay. Conditions: human, LX-2 cells. The procedure: as §1
Where [7] appears, read: 4 ng/mL TGF-b, 48 hours, read-out: Inhibition of Collagen Production in LX-2 Cells IC50.
The mark [8] stands for this setting: 72 h, read-out: Relative IC50 (μM).
Setting [9] is: 144 h, read-out: Relative IC50 (μM).

Where two headings read alike, the source gives them in different places.

For the compound `Cc1ccc2c(Nc3cc(CNC4CC4)cc(C(F)(F)F)c3)noc2c1C#Cc1cnc2cccnn12` [Compound 112], in series [1] (setting [7]), the IC50 – broadly, the point on the concentration scale where inhibition reaches its midpoint – is 1660 nM. Besides, the CC50 (commonly the concentration at which the toxic effect on the cells reaches its halfway point) in series [2] is 1.36 µM.
Turning to `Cc1ccc2c(Nc3cccc(C(F)(F)F)c3)noc2c1C#Cc1cnc2cccnn12` [Compound 1, 7-(Imidazo[1,2-b]pyridazin-3-ylethynyl)-6-methyl-N-(3-(trifluoromethyl)phenyl)benzo[d]isoxazol-3-amine], the IC50 is 5.7 µM in series [3] (setting [8]); 2.65 µM in series [3] (setting [9]); over 30 µM in series [4] (Homo sapiens, 72 h); over 30 µM in series [4] (Homo sapiens, 144 h); 13 nM in series [1] (Homo sapiens, LX-2, 48 h, read-out: Inhibition of Collagen Production in LX-2 Cells IC50(nM)); over 30 µM in series [5] (setting [8]). The IC50 in series [5] (setting [9]) was over 30 µM. For the same compound, the “Bottom (%)” value in series [3] (PC-07-0024, Day 3) is recorded as −11.36%; in series [3] (PC-07-0024, Day 6), −26.68%; in series [5] (LU-01-0523, Day 3) it was −5.49%; in series [5] (LU-01-0523, Day 6), −16.14%. For the same compound, the “Top (%)” value is listed as 42.29% in series [3] (PC-07-0024, Day 3); 37.60% in series [3] (PC-07-0024, Day 6); 100.00% in series [5] (LU-01-0523, Day 3); 0.00% in series [5] (LU-01-0523, Day 6). Further, the “Max (%)” value is 2.56% in series [4] (Day 3) and 2.88% in series [4] (Day 6). The “Min (%)” value in series [4] (Day 3) is given as −8.75%; in series [4] (Day 6), −27.04%. Also, the CC50 at 72 h in series [6] turned out to be 3 µM.
With `Cc1ccc2c(Nc3cncc(C(F)(F)F)c3)noc2c1C#Cc1cnc2cccnn12` [Compound 121], the IC50 in series [4] (Day 3, read-out: IC50) was over 30 µM; in series [4] (Day 6, read-out: IC50) it was 29.1 µM; in series [1] (setting [7]), 62 nM. For the same compound, the figures for the “Max (%)” value in series [4] (Day 3) and in series [4] (Day 6) were 49.93% and 51.14%, respectively. Also, the results for the “Min (%)” value in series [4] (Day 3) and in series [4] (Day 6) were −11.42% and −18.96%, respectively. The same compound gave a CC50 in series [2] of over 40 µM.
For `Cc1ccc2c(Nc3cccc(OC(F)(F)F)c3)noc2c1C#Cc1cnc2cccnn12` [Compound 120], the IC50 in series [1] (setting [7]) turned out to be 2950 nM. This compound also displayed a CC50 in series [2] of 2.41 µM.
For `Cc1ccc2c(Nc3cc(CN4CCOCC4)cc(C(C)(C)C#N)c3)noc2c1C#Cc1cnc2cccnn12` [Compound 117] the same measures were 160 nM and over 57.2 µM.
`Nc1ccn([C@@H]2O[C@H](CO)[C@@H](O)C2(F)F)c(=O)n1` [Gemcitabine]: the IC50 is 4 µM in series [3] (72 h, PC-07-0024, Day 3, read-out: Relative IC50); 0.009 µM in series [3] (144 h, PC-07-0024, Day 6, data exclsn, read-out: Relative IC50); 5.93 µM in series [3] (144 h, PC-07-0024, Day 6, read-out: Relative IC50); over 30 µM in series [5] (72 h, LU-01-0523, Day 3, read-out: Relative IC50); 1.34 µM in series [5] (144 h, LU-01-0523, Day 6, read-out: Relative IC50). The “Bottom (%)” value stood at 10.21% in series [3] (PC-07-0024, Day 3); 23.38% in series [3] (PC-07-0024, Day 6); 0.00% in series [3] (PC-07-0024, Day 6, data exclsn); 4.79% in series [5] (LU-01-0523, Day 3); 0.00% in series [5] (LU-01-0523, Day 6). The “Top (%)” value is 46.53% in series [3] (PC-07-0024, Day 3); 72.30% in series [3] (PC-07-0024, Day 6); 30.34% in series [3] (PC-07-0024, Day 6, data exclsn); 100.00% in series [5] (LU-01-0523, Day 3); 100.00% in series [5] (LU-01-0523, Day 6).
`Cc1nc(Nc2ncc(C(=O)Nc3c(C)cccc3Cl)s2)cc(N2CCN(CCO)CC2)n1` [Dasatinib, reference compound]: the IC50 was determined as 22.4 µM in series [4] (Homo sapiens, 72 h, Day 3, read-out: IC50) and 15.2 µM in series [4] (Homo sapiens, 144 h, Day 6, read-out: IC50). In addition, the “Max (%)” value in series [4] (Day 3) was determined as 66.18%; in series [4] (Day 6), 89.06%. Moreover, the “Min (%)” value in series [4] (Day 3) amounted to 8.00%; in series [4] (Day 6), 14.03%.
Take `Cc1ccc2c(Nc3cccc(C(C)(C)C#N)c3)noc2c1C#Cc1cnc2cccnn12` [Compound 115]: in series [1] (setting [7]), the IC50 came to 502 nM. The compound also gave a CC50 in series [2] of 1.9 µM.
For `Cc1ccc2c(Nc3cc(CN4CCCC4)cc(C(F)(F)F)c3)noc2c1C#Cc1cnc2cccnn12` [Compound 113] the same measures were 2580 nM and 4.25 µM.
For `Cc1ccc2c(Nc3cc(CN4CCOCC4)cc(C(F)(F)F)c3)noc2c1C#Cc1cnc2cccnn12` [Compound 111] the same measures were 1950 nM and over 42.3 µM.
